Assay results from patent publication US20220305003A1, “METHODS OF TREATING CANCER WITH AN INHIBITOR OF ZNF827” (CHILDREN'S MEDICAL RESEARCH INSTITUTE, priority 2019, published 2022).

Key:
Type in all cases: cell-based
U-2 OS cells = assay: IncuCyte live cell growth and apoptosis (Nucview488 caspase 3) assay
Method: Considering the effects of ZNF827 depletion on DNA replication and the cell cycle, the impact of ZNF827 on cell proliferation and cell viability was examined. Live cell assays were performed on U-2 OS cells in the IncuCyte® to monitor real-time cell proliferation by confluency and cell viability using Nucview488, a fluorescent reporting dye for caspase 3 activity that allows quantitative measurement of apoptotic activity. Cells were treated with topotecan or DMSO control for the first half of the assay and treatments were removed for the remaining time.
Cells were seeded at 20-30% in a 96-well black plate with clear bottom (3603, Corning) and left to adhere at 37° C. with 10% CO2 for at least 3 hours. The media was aspirated and replaced with phenol red free media supplemented 2 μM Nucview® 488 Caspase-3 substrate (Biotium) and placed into the IncuCyte® for baseline imaging without drug treatment. Topotecan 2 μg/mL or DMSO control was added to the wells, and incubated at 37° C. with 10% CO2 for 1 hour. The media was then aspirated, cells were washed carefully once with warm PBS, and the media replaced with phenol red free media supplemented 2 μM Nucview® 488 Caspase-3 substrate (Biotium). The plate was then placed back into IncuCyte®, imaged immediately post drug treatment, and then every 4 hours for 72 to 84 hours in the phase and green channels. Image analysis was performed with the IncuCyte® Zoom software. Cell growth was measured as % confluency over time, and apoptotic activity as green object confluence/area over time.

ATR-CHK1 pathway = assay: Western blot of ATR downstream effectors (p-CHK1 S345, p-RPA2 S33, pCHK2); settings: U-2 OS
Method: Protein was extracted from 10^6 cells per sample by vigorous pipetting and incubation at room temperature for 30 minutes in 100 μL of EDTA-free 4× LDS buffer (106 mM Tris-Cl, 141 mM Tris-Base, 40% Glycerol, 2% LDS, 0.075% SERVA Blue G50) supplemented with 2.5% Benzonase® nuclease 25 U/μL (Novagen, Merck Millipore) and 2% beta-mercaptoethanol (Sigma). Following protein extraction, all samples were denatured at 90° C. for 15 minutes before resolving on NuPAGE® Novex® 4-12% Bis-Tris Mini Gels (Invitrogen) with 1×10^5 cells (10 μL) loaded per lane in NuPAGE® MES SDS running buffer (Invitrogen) at 200 V for 50 minutes. Gels were transferred onto a PVDF membrane (Immobilon-P, Millipore) in transfer buffer (190 mM glycine, 25 mM Tris and 10% methanol) at 100 V for 60 minutes. Membranes were stained with Ponceau-S for 30 minutes, de-stained then blocked for 1 hour at room temperature in 5% skim milk dissolved in PBS with 0.1% Tween-20 (PBST) or TBS with 0.1% Tween-20 (TBST) for phosphorylated proteins. Membranes were cut into appropriate segments based on the size markers, with each segment incubated with antibodies for proteins of interest diluted in 0.5% skim milk in PBST/TBST or 5% BSA overnight at 4° C. (Refer to Table 4 for the list of antibodies). Blots were then washed for 3×5 minutes in PBST/TBST followed by incubation for 1 hour at room temperature with appropriate secondary antibodies (See Table 5) diluted 1:5000 in 0.5% skim milk or 5% BSA in PBST/TBST. Blots were washed for 3×5 minutes in PBST/TBST before incubation with SuperSignal West Pico Chemiluminescent Substrate (ThermoFisher Scientific) for 5 minutes at room temperature. Blots were then exposed to a Luminescent Image Analyser (LAS-4000, Fujifilm).
To investigate the precise function of ZNF827 in the ATR pathway, the effect of ZNF827 depletion on the downstream effectors of ATR was examined. To activate ATR, U-2 OS cells were treated with DNA damage and replication stress inducing agents topotecan 2 μg/mL for 24 hours or aphidicolin 1 μM for 20 hours. […] Phosphorylation of CHK2 was not affected by ZNF827 depletion, further supporting that the role of ZNF827 in DNA damage and repair is independent of ATM (FIG. 6d).

HT1080 cells = assay: RPA foci by immunofluorescence in HT1080 cells
Method: Topotecan and aphidicolin were used in this study. For experiments where they were used to cause replication stress and DNA damage, cells were treated with topotecan 2 μg/mL for either 1 hour or 24 hours, or aphidicolin 1 μM for 20 hours. For replication fork stalling induction in the PCNA colocalisation experiments, cells were treated with aphidicolin 0.4 μM for 6-8 hours. Topotecan and aphidicolin were dissolved in DMSO. DMSO was used as a control.
Cells were transfected using Lipofectamine RNAiMAX transfection reagent (ThermoFisher Scientific) with an siRNA concentration of […]. For transfection in a 75 cm^2flask, 3 mL reduced serum medium Opti-MEM (Gibco) was combined with 15 μL of 20 μM siRNA, mixed gently to cover the surface area of the flask and incubated at room temperature for 5 minutes. 30 μL of Lipofectamine RNAiMAX transfection reagent was then added to the mixture, and mixed and incubated for a further 15 minutes at room temperature. Meanwhile, cells to be transfected were trypsinised, resuspended in DMEM supplemented with 10% FCS, and counted using a Beckman Coulter cell counter. 0.8-1×10^6 cells in DMEM supplemented with 10% FCS were directly pipetted onto the transfection mixture in the flask, and shaken gently to mix. Additional DMEM supplemented with 10% FCS was added to the flask up to a total volume of 15 mL. Cells were harvested 72 hours post-transfection for knockdown validation and subsequent experiments.
Cells cultured on coverslips were fixed in 2% paraformaldehyde in PBS at room temperature for 10 minutes. Cells fixed on coverslips were rinsed with deionised water, and then permeabilised using KCM buffer (120 mM potassium chloride, 20 mM NaCl, 10 mM Tris, pH 7.5, 0.1% Triton X-100) at room temperature for 10 minutes. Coverslips were blocked with antibody diluent buffer (ABDIL—20 mM Tris-Cl, pH 7.5, 2% BSA, 0.2% fish gelatine, 150 mM NaCl, 0.1% Triton X-100, 0.1% sodium azide) containing 100 μg/mL RNase A at room temperature for one hour. […] Quantitated analysis was conducted by automation with CellProfiler (Broad Institute).

[1] = agent alone (topotecan 2 μg/mL 1 hour then removed, or ZNF827 depletion with DMSO)
[2] = agent alone (topotecan 2 μg/mL, or ZNF827 depletion vs scrambled control)
[3] = agent alone (topotecan 2 μg/mL 24 hours, aphidicolin 1 μM 20 hours, or siRNA knockdown in unchallenged cells)
[4] = agent alone (topotecan 2 μg/mL 24 hr, or 72 hr siRNA knockdown in unchallenged cells)

| Molecule | cell proliferation (% confluency over time) (U-2 OS cells; [1]) | apoptotic activity (Nucview488 caspase 3) (U-2 OS cells; [2]) | phosphorylation of CHK1 S345 (ATR-CHK1 pathway; [3]) | phosphorylation of RPA S33 (ATR-CHK1 pathway; topotecan 2 μg/mL 24 hours) | total nuclear RPA foci (HT1080 cells; [4]) | cell proliferation (% confluency over time) (U-2 OS cells; ZNF827 depletion in conjunction with topotecan 2 μg/mL) | apoptotic activity (Nucview488 caspase 3) (U-2 OS cells; combination of ZNF827 depletion and topotecan, compared with topotecan alone) | phosphorylation of CHK1 S345 (ATR-CHK1 pathway; 72 hr siRNA knockdown in topotecan- or aphidicolin-treated cells) | phosphorylation of RPA S33 (ATR-CHK1 pathway; 72 hr siRNA knockdown in topotecan-treated cells) | phosphorylation of CHK2 (ATR-CHK1 pathway; 72 hr siRNA knockdown, topotecan 2 μg/mL 24 hr or DMSO) | total nuclear RPA foci (HT1080 cells; 72 hr siRNA knockdown of ZNF827 in topotecan-treated cells (2 μg/mL, 24 hr)) |
| --- | --- | --- | --- | --- | --- | --- | --- | --- | --- | --- | --- |
| CC[C@@]1(O)C(=O)OCc2c1cc1n(c2=O)Cc2cc3c(CN(C)C)c(O)ccc3nc2-1 [topotecan] | effectively inhibited cell growth | much greater apoptotic activity | became phosphorylated at S345 | phosphorylated at S33 | RPA foci only became visible upon topotecan treatment | – | – | – | – | – | – |
| siZNF827: Stealth RNAi siRNA ZNF827HSS135819 duplex oligoribonucleotides (Invitrogen), SEQ ID NO: 12 and 13 (chain 1 GGGCAGUCUUCUGGCUGAGAAAUCA; chain 2 UGAUUUCUCAGCCAGAAGACUGCCC; listed as RNA, further chemistry not given here) | reduced cell proliferation, surprisingly to a similar efficacy as topotecan | significantly higher apoptotic activity compared to scrambled control | reduced baseline phosphorylation of CHK1 S345 | – | did not change the total number of nuclear RPA foci | completely abrogated cell proliferation | exceeded markedly | markedly suppressed | markedly suppressed | not affected | significantly greater increase in overall nuclear RPA foci |
